Assay results: patent US6750228B1, “Aromatic sulfone hydroxamic acid metalloprotease inhibitor” (priority 1997, dated 2004)
Structures can show the parent of a compound that is named as a salt.

Assays:
Assay in all cases: biochemical
MMP-1 = target: T1, MMP-1 (Homo sapiens, UniProt P03956); conditions: recombinant human MMP-1, MCA peptide substrate 4 μM, pH 7.5, room temperature; read-out: MMP-1 IC50
T1 construct: made in house; host or cells: transfected HT-1080 cells (provided by Dr. Harold Welgus, Washington University)
T1 sequence (P03956 100-469): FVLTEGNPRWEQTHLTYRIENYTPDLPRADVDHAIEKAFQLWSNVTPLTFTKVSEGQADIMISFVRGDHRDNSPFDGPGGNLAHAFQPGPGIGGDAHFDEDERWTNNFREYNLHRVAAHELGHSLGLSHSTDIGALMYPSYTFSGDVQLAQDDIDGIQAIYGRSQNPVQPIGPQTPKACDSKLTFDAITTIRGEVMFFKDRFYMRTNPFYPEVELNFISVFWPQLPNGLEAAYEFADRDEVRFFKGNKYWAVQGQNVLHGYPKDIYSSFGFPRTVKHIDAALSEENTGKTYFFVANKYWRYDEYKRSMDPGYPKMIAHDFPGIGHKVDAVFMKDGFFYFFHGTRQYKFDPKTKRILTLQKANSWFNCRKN
Procedure: (§1) The compounds prepared in the manner described in the Examples above were assayed for activity by an in vitro assay. […] Briefly, 4-aminophenylmercuric acetate (APMA) or trypsin-activated MMPs were incubated with various concentrations of the inhibitor compound at room temperature for 5 minutes.
(§2) The expressed enzyme was purified first over a heparin agarose column and then over a chelating zinc chloride column. The proenzyme was activated by APMA for use in the assay.
(§3) MMP-1 expressed in transfected HT-1080 cells was provided by Dr. Harold Welgus of Washington University, St. Louis, Mo. The enzyme was also activated using APMA and was then purified over a hydroxamic acid column. Dr. Welgus also provided transfected HT-1080 cells that expressed MMP-9. Transfected cells that expressed MMP-2 were provided by Dr. Gregory Goldberg, also of Washington University. Studies with MMP-7 were carried out at pH 7.5 in the presence of 0.02% 2-mercaptoethanol using conditions otherwise similar to those used for the other enzymes. The enzyme was obtaind from a hMMP-7-expressing E. coli clone that was a gift of Dr. Steven Shapiro of Washington University, St. Louis, Mo. Further specifics for preparation and use of these enzymes can be found in the scientific literature describing these enzymes. See, for example, Enzyme Nomenclature, Academic Press, San Diego, Calif. […] The enzyme substrate is a methoxycoumarin-containing polypeptide having the following sequence:
(§4) MCA-ProLeuGlyLeuDpaAlaArgNH2, wherein MCA is methoxycoumarin and Dpa is 3-(2,4-dinitrophenyl)-L-2,3-diaminopropionyl alanine.
(§5) The buffer used for assays contained 100 mM Tris-HCl, 100 mM NaCl, 10 mM CaCl2 and 0.05 percent polyethyleneglycol (23) lauryl ether at a pH value of 7.5. Assays were carried out at room temperature, and dimethyl sulfoxide (DMSO) at a final concentration of 1 percent was used to dissolve inhibitor compound.
(§6) The assayed inhibitor compound in DMSO/buffer solution was compared to an equal amount of DMSO/buffer with no inhibitor as control using Microfluor White Plates (Dynatech). The inhibitor or control solution was maintained in the plate for 10 minutes and the substrate was added to provide a final concentration of 4 μM.
(§7) Inhibition was measured as a reduction in fluorescent intensity as a function of inhibitor concentration, using a Perkin Elmer L550 plate reader. The IC50 values were calculated from those values. The results are set forth in the Inhibition Table A, below, reported in terms of IC50 to three significant figures, where appropriate.

MMP-13 = target: T2, MMP-13 (Homo sapiens, UniProt P45452); conditions: recombinant human MMP-13, MCA peptide substrate 4 μM, pH 7.5, room temperature; read-out: MMP-13 IC50
T2 construct: made in house; host or cells: baculovirus / insect cells
Procedure: as §1, §2, §3, §4, §5, §6, §7

MMP-2 = target: T3, MMP-2 (Homo sapiens, UniProt P08253); conditions: recombinant human MMP-2, MCA peptide substrate 4 μM, pH 7.5, room temperature; read-out: MMP-2 IC50
T3 construct: made in house; provided by Dr. Gregory Goldberg, Washington University
T3 sequence (P08253 110-660): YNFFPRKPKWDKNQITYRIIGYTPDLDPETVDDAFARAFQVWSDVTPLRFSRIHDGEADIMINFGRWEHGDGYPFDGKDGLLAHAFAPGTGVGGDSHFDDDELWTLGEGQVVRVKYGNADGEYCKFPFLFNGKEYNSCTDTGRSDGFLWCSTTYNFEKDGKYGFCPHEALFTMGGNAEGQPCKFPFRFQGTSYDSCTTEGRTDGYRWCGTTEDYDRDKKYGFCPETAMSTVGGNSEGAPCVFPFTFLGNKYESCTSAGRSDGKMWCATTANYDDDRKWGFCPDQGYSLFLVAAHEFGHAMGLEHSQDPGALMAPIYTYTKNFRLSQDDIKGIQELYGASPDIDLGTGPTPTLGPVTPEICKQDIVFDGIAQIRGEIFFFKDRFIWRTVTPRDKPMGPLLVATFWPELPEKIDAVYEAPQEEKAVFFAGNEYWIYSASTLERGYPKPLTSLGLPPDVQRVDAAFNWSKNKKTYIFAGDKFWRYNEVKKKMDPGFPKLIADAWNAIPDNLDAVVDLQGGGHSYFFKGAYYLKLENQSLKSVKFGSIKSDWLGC
Procedure: as §1, §2, §3, §4, §5, §6, §7

SMILES | IC50 (MMP-1) | IC50 (MMP-13) | IC50 (MMP-2)
O=C(NO)C1(S(=O)(=O)c2ccc(N3CCN(S(=O)(=O)c4ccccc4C(F)(F)F)CC3)cc2)CCOCC1 [Example 675] | 6 µM | 0.013 µM | 0.088 µM
O=C(NO)C1(S(=O)(=O)c2ccc([C@H]3CC[C@@H](c4ccccc4)CC3)cc2)CCOCC1 [Example 781] | > 10 µM | 0.8 µM | 5.1 µM
O=C(CNCC(F)(F)F)N1CCC(C(=O)NO)(S(=O)(=O)c2ccc(Oc3ccc(C(F)(F)F)cc3)cc2)CC1 [Example 322] | > 10 µM | 0.0003 µM | 0.0003 µM
O=C(NO)C1(S(=O)(=O)c2ccc(N3CC[C@@H](COCc4ccc(F)cc4)C3)cc2)CCOCC1 [Example 526] | > 10 µM | > 10 µM | > 10 µM
C#CCN1CCC(C(=O)NO)(S(=O)(=O)c2ccc(Oc3ccc(OC(F)(F)F)cc3)cc2)CC1 [Example 349] | 2.6 µM | 0.0002 µM | < 0.0001 µM
COc1ccc(CCCOC2CCN(c3ccc(S(=O)(=O)C4(C(=O)NO)CCOCC4)cc3)CC2)cc1OC [Example 811] | > 10 µM | 0.0148 µM | 0.11 µM
CCOC(=O)C1CCN(CC(=O)N2CCC(C(=O)NO)(S(=O)(=O)c3ccc(N4CCC(C(=O)N5CC(C)CC(C)C5)CC4)cc3)CC2)CC1 (stereo not drawn) [Example 313] | > 10 µM | 0.077 µM | > 10 µM
Cc1ccc(C(=O)C2CCN(c3ccc(S(=O)(=O)C4(C(=O)NO)CCOCC4)cc3)CC2)cc1 [Example 652] | > 10 µM | 0.0004 µM | 0.082 µM
O=C(Nc1cccc(F)c1)C1CCN(c2ccc(S(=O)(=O)C3(C(=O)NO)CCOCC3)cc2)CC1 [Example 71] | > 10 µM | 0.0077 µM | 0.27 µM
N#Cc1ccc(COC2CCN(c3ccc(S(=O)(=O)C4(C(=O)NO)CCOCC4)cc3)CC2)cc1 [Example 180] | > 10 µM | 0.0011 µM | 0.0418 µM
O=C(CCCCNCc1ccccn1)N1CCC(C(=O)NO)(S(=O)(=O)c2ccc(Oc3ccc(C(F)(F)F)cc3)cc2)CC1 [Example 336] | > 10 µM | 0.001 µM | < 0.0001 µM
O=C(NO)C1(S(=O)(=O)c2ccc(N3CCN(S(=O)(=O)c4cccs4)CC3)cc2)CCOCC1 [Example 685] | > 10 µM | 0.003 µM | 0.0347 µM
O=C(NO)C1(S(=O)(=O)c2ccc(N3CCC(OCc4ccc(COCCF)cc4)CC3)cc2)CCOCC1 [Example 606] | > 10 µM | 0.003 µM | 0.077 µM
CC(C)CN(C)C(=O)C1CCN(c2ccc(S(=O)(=O)C3(C(=O)NO)CCOCC3)cc2)CC1 [Example 58] | > 10 µM | 0.022 µM | 4 µM
CC(C)N1CCC(C(=O)NO)(S(=O)(=O)c2ccc(OC(F)(F)F)cc2)CC1 [Example 439] | > 10 µM | 1.07 µM | 1.6 µM
COc1ccccc1NC(=O)N1CCC(C(=O)NO)(S(=O)(=O)c2ccc(Oc3ccc(OC(F)(F)F)cc3)cc2)CC1 [Example 357] | > 10 µM | 0.0003 µM | 0.0001 µM
O=C(Nc1ccccc1C(F)(F)F)N1CCC(C(=O)NO)(S(=O)(=O)c2ccc(Oc3ccc(OC(F)(F)F)cc3)cc2)CC1 [Example 364] | > 10 µM | 0.001 µM | 0.0002 µM

SMILES | IC50 (MMP-1) | IC50 (MMP-13) | IC50 (MMP-2)
COCCN1CCC(C(=O)NO)(S(=O)(=O)c2ccc(N3CCC(C(=O)NCCCc4ccccc4)CC3)cc2)CC1 [Example 237, N-Hydroxy-1-(2-methoxyethyl)-4-[[4-[4-[[(3-phenylpropyl)amino]carbonyl]-1-piperidinyl]-phenyl]sulfonyl]-4-piperidinecarboxamide, Monohydrochloride] | > 10 µM | 0.013 µM | 1.9 µM
CC1CC(C)CN(C(=O)C2CCN(c3ccc(S(=O)(=O)C4(C(=O)NO)CCN(C(=O)CNCc5cccs5)CC4)cc3)CC2)C1 (stereo not drawn) [Example 282] | > 10 µM | 0.0148 µM | 9 µM
O=C(NO)C1(S(=O)(=O)c2ccc(N3CCN(Cc4ccccc4)CC3)cc2)CCOCC1 [Example 538] | > 10 µM | 0.08 µM | 0.37 µM
COc1cc2c(cc1OC)CN(c1ccc(S(=O)(=O)C3(C(=O)NO)CCN(C4CC4)CC3)cc1)CC2 [Example 464] | > 10 µM | 0.12 µM | 0.4 µM
CC1CCN(c2ccc(S(=O)(=O)C3(C(=O)NO)CCOCC3)cc2)CC1 [Example 495] | > 10 µM | 0.0145 µM | 0.0211 µM
O=C(NO)C1(S(=O)(=O)c2ccc(N3CCC(Oc4c(Cl)cc(C(F)(F)F)cc4Cl)CC3)cc2)CCOCC1 [Example 570] | > 10 µM | 0.29 µM | > 10 µM
O=C(c1ccccc1)N1CCC(C(=O)NO)(S(=O)(=O)c2ccc(Oc3ccc(C(F)(F)F)cc3)cc2)CC1 [Example 92] | > 10 µM | 0.0008 µM | 0.0001 µM
COc1ccc(NC(=O)C2CCN(c3ccc(S(=O)(=O)C4(C(=O)NO)CCOCC4)cc3)CC2)cc1 [Example 76] | > 10 µM | 0.009 µM | 0.25 µM
CN(C(=O)C1CCN(c2ccc(S(=O)(=O)C3(C(=O)NO)CCOCC3)cc2)CC1)c1ccccc1 [Example 60] | > 10 µM | 0.0139 µM | 3.7 µM
O=C(NO)C1(S(=O)(=O)c2ccc(Oc3ccc(OC(F)(F)F)cc3)cc2)CCN(S(=O)(=O)C(F)(F)F)CC1 [Example 197] | > 10 µM | 0.0027 µM | < 0.0001 µM
O=C(Nc1ccncn1)C1CCN(c2ccc(S(=O)(=O)C3(C(=O)NO)CCOCC3)cc2)CC1 [Example 74] | > 10 µM | 0.009 µM | 0.08 µM
O=C(NO)C1(S(=O)(=O)c2ccc(N3CCC(Oc4ccc([N+](=O)[O-])c(F)c4)CC3)cc2)CCOCC1 [Example 548] | > 10 µM | 0.04 µM | 0.8 µM
O=C(Nc1ccccc1OC(F)(F)F)C1CCN(c2ccc(S(=O)(=O)C3(C(=O)NO)CCOCC3)cc2)CC1 [Example 63] | > 10 µM | 0.02 µM | 2.9 µM
CC1CC(C)CN(C(=O)C2CCN(c3ccc(S(=O)(=O)C4(C(=O)NO)CCN(C(=O)CN5CCOCC5)CC4)cc3)CC2)C1 (stereo not drawn) [Example 283] | > 10 µM | 0.0138 µM | > 10 µM
O=C(NO)C1(S(=O)(=O)c2ccc(N3CCCN(S(=O)(=O)c4ccc(C(F)(F)F)cc4)CC3)cc2)CCOCC1 [Example 697] | > 10 µM | 0.0181 µM | 1.5 µM
O=C(NO)C1(S(=O)(=O)c2ccc(N3CCC(OCc4ccccc4-c4ccccc4)CC3)cc2)CCOCC1 [Example 181] | > 10 µM | 0.19 µM | 2.3 µM
